# In PMC6914780 (2019):
# Key:
# [1] = system: SAM-VI WT (B. angulatum 59 metK, U1A loop, crystallization/ITC construct) (RNA, riboswitch) GGCAUUGUGCCUCGCAUUGCACUCCGCGGGGCGAUAAGUCCUGAAAAGGGAUGUC; assay: ITC; details: K+ 50 mM, Mg2+ 10 mM; 40 mM HEPES pH 7.0, 20 °C
# [2] = system: SAM-VI U6C (RNA, riboswitch) GGCAUCGUGCCUCGCAUUGCACUCCGCGGGGCGAUAAGUCCUGAAAAGGGAUGUC; assay: ITC; details: K+ 50 mM, Mg2+ 10 mM; 40 mM HEPES pH 7.0, 20 °C
# [3] = system: SAM-VI G7C (RNA, riboswitch) GGCAUUCUGCCUCGCAUUGCACUCCGCGGGGCGAUAAGUCCUGAAAAGGGAUGUC; assay: ITC; details: K+ 50 mM, Mg2+ 10 mM; 40 mM HEPES pH 7.0, 20 °C; N.D.; 0.5-1 mM ligand in syringe
# [4] = system: SAM-VI U8C (RNA, riboswitch) GGCAUUGCGCCUCGCAUUGCACUCCGCGGGGCGAUAAGUCCUGAAAAGGGAUGUC; assay: ITC; details: K+ 50 mM, Mg2+ 10 mM; 40 mM HEPES pH 7.0, 20 °C; N.D.; 0.5-1 mM ligand in syringe
# [5] = system: SAM-VI U8G (RNA, riboswitch) GGCAUUGGGCCUCGCAUUGCACUCCGCGGGGCGAUAAGUCCUGAAAAGGGAUGUC; assay: ITC; details: K+ 50 mM, Mg2+ 10 mM; 40 mM HEPES pH 7.0, 20 °C; N.D.; 0.5-1 mM ligand in syringe
# [6] = system: SAM-VI U8A (RNA, riboswitch) GGCAUUGAGCCUCGCAUUGCACUCCGCGGGGCGAUAAGUCCUGAAAAGGGAUGUC; assay: ITC; details: K+ 50 mM, Mg2+ 10 mM; 40 mM HEPES pH 7.0, 20 °C; N.D.; 0.5-1 mM ligand in syringe
# [7] = system: SAM-VI G33A (RNA, riboswitch) GGCAUUGUGCCUCGCAUUGCACUCCGCGGGGCAAUAAGUCCUGAAAAGGGAUGUC; assay: ITC; details: K+ 50 mM, Mg2+ 10 mM; 40 mM HEPES pH 7.0, 20 °C; N.D.; 0.5-1 mM ligand in syringe
# [8] = system: SAM-VI A34C (RNA, riboswitch) GGCAUUGUGCCUCGCAUUGCACUCCGCGGGGCGCUAAGUCCUGAAAAGGGAUGUC; assay: ITC; details: K+ 50 mM, Mg2+ 10 mM; 40 mM HEPES pH 7.0, 20 °C; N.D.; 0.5-1 mM ligand in syringe
# [9] = system: SAM-VI A34G (RNA, riboswitch) GGCAUUGUGCCUCGCAUUGCACUCCGCGGGGCGGUAAGUCCUGAAAAGGGAUGUC; assay: ITC; details: K+ 50 mM, Mg2+ 10 mM; 40 mM HEPES pH 7.0, 20 °C; N.D.; 0.5-1 mM ligand in syringe
# [10] = system: SAM-VI A36C (RNA, riboswitch) GGCAUUGUGCCUCGCAUUGCACUCCGCGGGGCGAUCAGUCCUGAAAAGGGAUGUC; assay: ITC; details: K+ 50 mM, Mg2+ 10 mM; 40 mM HEPES pH 7.0, 20 °C; N.D.; 0.5-1 mM ligand in syringe
# [11] = system: SAM-VI A37C (RNA, riboswitch) GGCAUUGUGCCUCGCAUUGCACUCCGCGGGGCGAUACGUCCUGAAAAGGGAUGUC; assay: ITC; details: K+ 50 mM, Mg2+ 10 mM; 40 mM HEPES pH 7.0, 20 °C; N.D.; 0.5-1 mM ligand in syringe
# [12] = system: SAM-VI G38C (RNA, riboswitch) GGCAUUGUGCCUCGCAUUGCACUCCGCGGGGCGAUAACUCCUGAAAAGGGAUGUC; assay: ITC; details: K+ 50 mM, Mg2+ 10 mM; 40 mM HEPES pH 7.0, 20 °C; N.D.; 0.5-1 mM ligand in syringe
# [13] = system: SAM-VI A36G/A37G/G38A (RNA, riboswitch) GGCAUUGUGCCUCGCAUUGCACUCCGCGGGGCGAUGGAUCCUGAAAAGGGAUGUC; assay: ITC; details: K+ 50 mM, Mg2+ 10 mM; 40 mM HEPES pH 7.0, 20 °C; N.D.; 0.5-1 mM ligand in syringe
# [14] = system: metK 61 (U39Ap) (RNA, riboswitch, 2-aminopurine at U39 (paper numbering)) GCAAACGAAAACGUAUCAUUGUGCCUCGCUGGGGAGCGGGGCGAUAAGUCCGAAAGAGGGA; assay: 2-aminopurine fluorescence; details: K+ 100 mM, Mg2+ 2 mM; 50 mM KMOPS pH 7.5, 20 °C; 0.5 µM RNA, 15 µM SAM; no fluorescence change
# [15] = system: metK 65 (U39Ap) (RNA, riboswitch, 2-aminopurine at U39 (paper numbering)) GCAAACGAAAACGUAUCAUUGUGCCUCGCUGGGGAGCGGGGCGAUAAGUCCGAAAGAGGGAUGAU; assay: 2-aminopurine fluorescence; details: K+ 100 mM, Mg2+ 2 mM; 50 mM KMOPS pH 7.5, 20 °C; 0.5 µM RNA, 15 µM SAM; >3-fold fluorescence increase
# [16] = system: wt U39Ap SAM-VI (GAAA tetraloop) (RNA, riboswitch, 2-aminopurine at U39 (paper numbering)) GGCAUUGUGCCUCGAAAGGGGCGAUAAGUCCUGAAAAGGGAUGUC; assay: 2-aminopurine fluorescence titration; details: K+ 100 mM, Mg2+ 2 mM; 50 mM KMOPS pH 7.5, 20 °C; apparent
# [17] = system: U6C U39Ap SAM-VI (RNA, riboswitch, 2-aminopurine at U39 (paper numbering)) GGCAUCGUGCCUCGAAAGGGGCGAUAAGUCCUGAAAAGGGAUGUC; assay: 2-aminopurine fluorescence titration; details: K+ 100 mM, Mg2+ 2 mM; 50 mM KMOPS pH 7.5, 20 °C; apparent
# [18] = system: wt U39Ap SAM-VI (GAAA tetraloop) (RNA, riboswitch, 2-aminopurine at U39 (paper numbering)) GGCAUUGUGCCUCGAAAGGGGCGAUAAGUCCUGAAAAGGGAUGUC; assay: stopped-flow 2-aminopurine fluorescence; details: K+ 100 mM, Mg2+ 2 mM; 50 mM KMOPS pH 7.5, 20 °C; association rate constant
# [19] = system: U6C U39Ap SAM-VI (RNA, riboswitch, 2-aminopurine at U39 (paper numbering)) GGCAUCGUGCCUCGAAAGGGGCGAUAAGUCCUGAAAAGGGAUGUC; assay: stopped-flow 2-aminopurine fluorescence; details: K+ 100 mM, Mg2+ 2 mM; 50 mM KMOPS pH 7.5, 20 °C; association rate constant
Structure (SMILES),Kd [1],Kd [2],binding [3],binding [4],binding [5],binding [6],binding [7],binding [8],binding [9],binding [10],binding [11],binding [12],binding [13],binding [14],binding [15],Kd [16],Kd [17],kon [18],kon [19]
C[S+](CC[C@H](N)C(=O)O)C[C@H]1O[C@@H](n2cnc3c(N)ncnc32)[C@H](O)[C@@H]1O (stereo partly drawn),330 ± 60 nM,460 ± 20 nM,no,no,no,no,no,no,no,no,no,no,no,no,yes,2040 ± 110 nM,2310 ± 60 nM,"24,580 ± 689 M^-1 s^-1","62,550 ± 1900 M^-1 s^-1"
Nc1ncnc2c1ncn2[C@@H]1O[C@H](CN(CCO)CC[C@H](N)C(=O)O)[C@@H](O)[C@H]1O,4400 ± 500 nM,1700 ± 300 nM,,,,,,,,,,,,,,,,"17,240 ± 1140 M^-1 s^-1",4230 ± 462 M⁻¹ s⁻¹
Nc1ncnc2c1ncn2[C@@H]1O[C@H](CSCC[C@H](N)C(=O)O)[C@@H](O)[C@H]1O,10900 ± 1300 nM,2300 ± 100 nM,,,,,,,,,,,,,,,,5500 ± 266 M⁻¹ s⁻¹,1460 ± 179 M⁻¹ s⁻¹
